SMILES strings stand for the structures.

The subject of one test is HCT116 xenograft. Description: HCT116 xenograft model in NSG mice (bioluminescence imaging). Format: in vivo. The procedure: (A) 1×10^6 luciferase-expressing HCT116 cells, alone or with 2×10^7 NKL cells, were subcutaneously injected into 8- to 10-week-old NSG mice (n=4). […] HCT116 xenograft growth was analyzed by performing bioluminescence imaging on day 15. (B) 1×10^6 HCT116 cells were subcutaneously injected into 8- to 10-week-old NSG mice. […] Tumor sections were prepared for ULBP2 immunohistochemical staining on day 15. (C) NKG2D expression on the cell surface of YT-INDY and YT-INDY-NKG2D cells was analyzed by flow cytometry. […] (D) 1×10^6 luciferase-expressing HCT116 cells were subcutaneously injected into 8- to 10-week-old NSG mice with either 1×10^6 YT-INDY or YT-INDY-NKG2D cells (n=8 per group). […] HCT116 xenograft growth was analyzed by performing bioluminescence imaging on day 15. (E) MICA-B and ULBP1-3 expressions on the cell surface of HCT116 or HCT116-ΔNKG2DLs cells were analyzed by flow cytometry. […] (F) 1×10^6 luciferase-expressing HCT116 or HCT116-ΔNKG2DLs cells were subcutaneously injected into 8- to 10-week-old NSG mice with 1×10^6 YT-INDY-NKG2D cells (n=8 per group). […] HCT116 xenograft growth was analyzed by performing bioluminescence imaging on day 10. […] 1×10^6 each of luciferase-expressing HCT116 cells and YT-INDY-NKG2D were injected subcutaneously into the mice on day 0. HCT116 xenograft growth was analyzed by performing bioluminescence imaging on day 3. * P<0.05, ** P<0.01, *** P<0.005, **** P<0.0005.
Luciferase-expressing HCT116 and HT29 cells were generated by lentiviral transduction of the cells with a CMV promoter-driven luciferase expression construct engineered from the pLL3.7 vector. […] Bioluminescence imaging was performed in a Xenogen imaging system to monitor tumor growth and the data were analyzed using Living Image software (Caliper LifeSciences). For the lung metastasis model using HT29 cells, lungs were harvested for bioluminescence imaging and then fixed in 10% neutral buffered formalin, paraffin embedded, sectioned, and stained with hematoxylin and eosin. A total of six lung sections at 100-μm intervals were collected for the observation of pulmonary nodules. For the hepatic metastasis model, 0.5×10^6 of luciferase-expressing HCT116 cells were intrasplenically implanted into 6-8 week-old NSG mice.

Test [1] relates to spontaneous intestinal polyps. Briefly: C57BL/6J-ApcMin/J mouse model. Format: in vivo, C57BL/6J-Apc^Min/J mice. The procedure: The number of spontaneous intestinal polyps (arrows) was counted and compared between the two groups of mice at the end of the 3 month period. (B) The difference in adenoma growth (arrows) between the PBS- and SPIR-treated mouse groups was confirmed in intestine tissue sections. […] Total RNA were collected for cDNA preparation and the expressions of the mouse NKG2D ligands Raet1 family were analyzed by qRT-PCR. […] The number of spontaneous intestinal polyps (arrows) was counted and compared between the two groups of mice. * P≤0.05, ** P≤0.01, *** P<0.005.
By examining the intestines collected from different age groups of C57BL/6J-APC^Min/J mice (n=2-3 per group), it was discovered that none of the 8-week-old mice developed intestinal polyps. The mice started to develop polyps when they were 10 to 12-week-old and there were 15-25 intestinal adenomas established in the intestinal tracts of all the 4-month-old mice. Most of the mice died at 5 to 6 months with 25-30 adenomas in their intestines. […] The number of intestinal polyps was counted, and the intestine was fixed in 10% neutral buffered formalin, paraffin embedded, sectioned, and stained with hematoxylin and eosin. Intestine sections at 100-μm intervals were collected for the observation of neoplasia without knowledge of treatment assignment.

Test [2] has as its system HCT116, HT29, and CAL27 cells. Description: in vitro cell invasion assay (ECM-coated Transwell). Conditions: HCT116, HT29, CAL27. Format: cell-based, human. As for the experimental part:
The number of cells that invaded the ECM was determined after 24 h. Data are expressed as percentage change in tumor invasion relative to that of DMSO-treated cells (n=3). (D) Wound healing by DMSO- and SPIR-treated HCT116, HT29, and CAL27 cells was compared. Data are calculated as the percentage change in distance of migration relative to that of DMSO-treated cells (n=3). […] Tumor xenografts and lung metastases were detected by bioluminescence imaging on day 25. Data are shown as the average total flux (photons/second)±standard deviation (n=8). (F) The lung metastases (arrows) were confirmed by examining lung tissue sections. * P≤0.05, ** P<0.01, *** P<0.005, **** P<0.0001.
The invasiveness of the tumor cells was determined by using the CytoSelect 96-well Cell Invasion Assay with Basement Membrane (Cell Biolabs) according to the manufacturer instructions.

As for `CC(=O)S[C@@H]1CC2=CC(=O)CC[C@]2(C)[C@H]2CC[C@@]3(C)[C@@H](CC[C@@]34CCC(=O)O4)[C@H]12` [SPIR, spironolactone], the “tumor growth in the presence of YT-INDY-NKG2D” value in the test with HCT116 xenograft (1.25 mg/mouse i.p.) is reported as “strongly suppressed the tumor growth”. For the same molecule, the “tumor growth, mice bearing NKL cells” value in the test with HCT116 xenograft (HCT116 plus NKL cells, 1.25 mg/mouse i.p. twice a week for 2 weeks) was “suppressed tumor growth considerably”. Besides, in the test with HCT116 xenograft (HCT116 without NKL cells, 1.25 mg/mouse i.p. twice a week for 2 weeks), the “tumor growth, SPIR alone” value was “did not affect tumor growth”. Further, the “HCT116 xenograft growth in YT-INDY-bearing mice” value in the test with HCT116 xenograft (NKG2D-negative NK cell line) was “did not reduce the HCT116 xenograft growth”. The “tumor susceptibility to NK cell killing triggered by SPIR, HCT116-ΔNKG2DLs” value with HCT116 xenograft (NKG2DL-deficient HCT116 vs HCT116, YT-INDY-NKG2D) was “significantly reduced tumor susceptibility to NK cell killing”. Also, the “ULBP2 expression in the HCT116 xenografts” value in the test on HCT116 xenograft (immunohistochemical staining day 15) is recorded as “significantly enhanced ULBP2 expression”. Also, in the test with HCT116 xenograft (pretreating twice a week for 2 weeks before HCT116 and YT-INDY-NKG2D implantation), the “tumor development after pretreatment” value was “greatly inhibited tumor development”. Besides, the “number of polyps (therapy)” value in test [1] (4-month-old mice, twice a week for 3 weeks, vs untreated) is reported as “significant reduction of the number of polyps”. Further, the “number of polyps formed (prevention)” value in test [1] (8-week-old mice, twice a week for 3 months, vs untreated) is “significantly less”. Moreover, the “expression of Raet1 ligand in the polyps” value in test [1] (qRT-PCR) is “significantly increased the expression of the Raet1 ligand”. Besides, the “invasion through ECM-coated membranes” value in test [2] is recorded as “significantly suppressed invasion”.

Values taken from US10286000B2, “Retinoid X receptor-gamma agonists and retinoid X receptor-alpha antagonists for treatment of cancer” (St. Jude Children's Research Hospital, Inc., priority 2013, dated 2019).
